Test results reported in patent US9475824B2, “Fused pyrimidines as inhibitors of p97 complex” (Cleave Biosciences, Inc., priority 2012, dated 2016).
pIC50: −log10 of the molar value.

Assays:
[1] = tested on: Caco-2 cell monolayer
[2] = in vitro; settings: human, Caco-2, pH 7.4
[3] = tested on: K48-Ub, A549 cells; assay: A549 K48 cell intensity (immunofluorescence, high content imaging); format: cell-based; settings: Homo sapiens, 6 hr compound incubation
Procedure: Image-analysis is used to generate quantitative data from these assays that can be fit to a four-parameter sigmoid curve to derive IC50 values. Substrates of the ubiquitin-proteasome system, such as p53, are monitored after tumor cell lines are incubated with compounds for several hours. Accumulation of these proteins indicates an inhibition of proteasome-mediated degradation. Accumulation of lysine-48 chain linkage of poly-ubiquitin is also monitored by immunofluorescence as an indicator of ubiquitin-proteasome system inhibition. Both LC3 and SQSTM1 are mediators of autophagy. The localization and amounts of these proteins are monitored by immunofluorescence and report on the activity and inhibition of autophagy in response to p97 inhibition.
Day 1, Cell Plating to Establish Colonies of Cancer Cells • Cell Plating: • Seed cells ˜16 hrs prior to compound treatment • Plate 25 μL of A549 cells in every well of 384-well plate using multidrop. • Two (2) black plates for IF at 2500 cells/well • Let plate sit at room temp for 10-15 minutes prior to putting in incubator to allow cells to stick in middle of plate. • One (1) white plate for viability at 500 cells/well.

[4] = target: p97 (Homo sapiens, UniProt P55072); assay: P97 ATPase biochemical assay (ADP Glo); settings: 20 nM p97, 20 μM ATP, 37° C. 15 minutes
Sequence of p97 (P55072 whole entry): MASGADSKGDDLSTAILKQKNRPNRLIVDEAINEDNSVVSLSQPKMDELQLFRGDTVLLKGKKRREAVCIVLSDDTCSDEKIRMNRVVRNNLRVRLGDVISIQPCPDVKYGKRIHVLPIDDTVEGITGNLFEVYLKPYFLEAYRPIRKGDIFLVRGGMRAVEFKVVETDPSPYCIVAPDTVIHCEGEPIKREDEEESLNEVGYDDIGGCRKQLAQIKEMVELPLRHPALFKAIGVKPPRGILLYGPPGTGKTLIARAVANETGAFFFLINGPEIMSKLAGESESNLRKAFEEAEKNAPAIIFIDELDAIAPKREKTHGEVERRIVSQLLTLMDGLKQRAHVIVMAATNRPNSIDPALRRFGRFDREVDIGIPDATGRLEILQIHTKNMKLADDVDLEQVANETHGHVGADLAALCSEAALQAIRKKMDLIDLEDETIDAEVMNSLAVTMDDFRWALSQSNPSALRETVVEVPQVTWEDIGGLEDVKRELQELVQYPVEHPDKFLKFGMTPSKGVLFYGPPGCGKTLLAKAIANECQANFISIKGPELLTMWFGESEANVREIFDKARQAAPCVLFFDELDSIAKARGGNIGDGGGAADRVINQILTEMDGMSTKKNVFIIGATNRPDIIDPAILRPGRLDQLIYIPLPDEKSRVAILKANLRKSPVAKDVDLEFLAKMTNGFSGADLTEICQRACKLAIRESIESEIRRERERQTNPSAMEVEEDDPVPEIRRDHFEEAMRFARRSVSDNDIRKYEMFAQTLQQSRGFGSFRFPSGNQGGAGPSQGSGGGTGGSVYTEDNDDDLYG
Procedure: The ATPase assay is performed according the following protocol: Purified enzyme (20 nM p97), substrate (20 μM ATP) and a dose titration of compounds are mixed in buffer (50 mM TRIS pH 7.5, 20 mM MgCl2, 0.02% TX-100, 1 mM DTT, 0.2% (v/v) glycerol) and incubated at 37° C. for 15 minutes. The reaction is terminated and the level of product generated is measured using the ADP Glo Assay Kit (Promega, Madison Wis.). Plotting product generated versus compound concentration and using a four-parameter fit model generates an IC50 value for each compounds.
The p97 assay is an initial screening assay used to determine inhibitory activity of the fused pyrimidine compounds of the invention against the p97 complex. As discussed above, inhibition of activity of the p97 proteosome complex can enable apoptosis and cause elimination of neoplastic cells (cancer cells). The method follows that of Christianson in Nat.
Assay Buffer is a mixture of 50 mM TRIS pH 7.5, 20 mM MgCl2, 0.02% TX-100, 1 mM DTT and 0.2% (v/v) Glycerol. […] The identification kit is an ADP glo kit (Promega): stop buffer, detection reagent.
0.5 μL compound serial diluted in DMSO (Final Conc. 10%)
2 μL ATP (Final Conc.=20 uM, diluted in assay buffer)
2.5 μL p97 (Final Conc.=20 nM, diluted in assay buffer)
Incubate at 37 degC for 15 min.
Add 5 μL of stop buffer, incubate at RT for 40 min.
Add 10 μL of detection reagent, incubate at RT for 30 min.
Read luminescence on Envision plate reader.
Plot normalized luminescence data against log-transformed concentration values and fit to a sigmoidal curve to determine IC50 values (done in Collaborative Drug Discovery software).

Structure (SMILES)	Peff A B, Range ([1]; pH 7.4 Caco-2, A to B)	Peff B A, Range ([1]; pH 7.4 Caco-2, B to A)	Papp A→B at 90 min, 100 μM [2]	Papp B→A at 90 min, 100 μM [2]	pIC50 [3]	pIC50 [4]
CC(C)NCC(O)COc1cccc2ccccc12 (stereo not shown) [Propranolol]	18.50-36.80 ×E−6 cm/sec	16.30-31.40 ×E−6 cm/sec	28.5 ×10⁻⁶ cm/s	20.9 ×10⁻⁶ cm/s	–	–
CNC(=O)c1cccc2c1cc(C)n2-c1nc2c(c(NCc3ccccc3)n1)CCCC2 [compound 132, 1-[4-(benzylamino)-5,6,7,8-tetrahydroquinazolin-2-yl]-N-methyl-2-methyl-1H-indole-4-carboxamide]	–	–	–	–	> 5.00	> 7.52
CCNC(=O)c1cccc2c1cc(C)n2-c1nc2c(c(NCc3ccccc3)n1)CCCC2 [compound 134, 1-[4-(benzylamino)-5,6,7,8-tetrahydroquinazolin-2-yl]-N-ethyl-2-methyl-1H-indole-4-carboxamide]	–	–	–	–	> 5.00	> 7.52
Cc1cc2c(C(N)=O)cccc2n1-c1nc2c(c(NCc3cccc(F)c3)n1)COCC2 [compound 136, 1-(4-{[(3-fluorophenyl)methyl]amino}-5H,7H,8H-pyrano[4,3-d]pyrimidin-2-yl)-2-methyl-1H-indole-4-carboxamide]	–	–	–	–	> 5.00	> 7.52
COCCOc1cc2c(C#N)cccc2n1-c1nc2c(c(NCc3ccccc3)n1)CCCC2 [compound 137, 1-[4-(benzylamino)-5,6,7,8-tetrahydroquinazolin-2-yl]-2-(2-methoxyethoxy)-1H-indole-4-carbonitrile]	–	–	–	–	> 5.00	> 7.52

Second part, the compound after the results:

Peff A B, Range ([1]; pH 7.4 Caco-2, A to B)	Peff B A, Range ([1]; pH 7.4 Caco-2, B to A)	Papp A→B at 90 min, 100 μM [2]	Papp B→A at 90 min, 100 μM [2]	pIC50 [3]	pIC50 [4]	Structure (SMILES)
–	–	–	–	> 5.00	> 7.00	Cc1cc2c(C(N)=O)cccc2n1-c1nc2c(c(NCc3ccc(F)cc3)n1)COCC2 [compound 122, 1-(4-{[(4-fluorophenyl)methyl]amino}-5H,7H,8H-pyrano[4,3-d]pyrimidin-2-yl)-2-methyl-1H-indole-4-carboxamide]
–	–	–	–	> 5.00	> 7.00	Cc1cc2c(C(N)=O)cccc2n1-c1nc2c(c(NCc3ccccc3F)n1)COCC2 [compound 123, 1-(4-{[(2-fluorophenyl)methyl]amino}-5H,7H,8H-pyrano[4,3-d]pyrimidin-2-yl)-2-methyl-1H-indole-4-carboxamide]
–	–	–	–	> 5.00	> 7.00	Cc1cc2c(CN)cccc2n1-c1nc2c(c(NCc3ccccc3)n1)CCCC2 [compound 124, 2-[4-(aminomethyl)-2-methyl-1H-indol-1-yl]-N-benzyl-5,6,7,8-tetrahydroquinazolin-4-amine]
–	–	–	–	> 5.00	> 7.00	CC(C)c1cc2c(C(N)=O)cccc2n1-c1nc2c(c(NCc3ccccc3)n1)CCCC2 [compound 128, 1-[4-(benzylamino)-5,6,7,8-tetrahydroquinazolin-2-yl]-2-(propan-2-yl)-1H-indole-4-carboxamide]
–	–	–	–	> 5.00	> 7.52	NC(=O)c1cccc2c1cc(C1CC1)n2-c1nc2c(c(NCc3ccccc3)n1)CCCC2 [compound 130, 1-[4-(benzylamino)-5,6,7,8-tetrahydroquinazolin-2-yl]-2-cyclopropyl-1H-indole-4-carboxamide]
